From patent US7687623B2, “Pyrrolobenzodiazepines and heterocyclic carboxamide derivatives as follicle stimulating hormone receptor (FSH-R) antagonists” (Wyeth LLC, priority 2005, dated 2010)

Legend:
hFSH-R = molecular target: T1, hFSH-R (Homo sapiens, UniProt P23945); assay: cAMP accumulation (RIA) in CHO-3D2 cells (hFSH-R), hFSH-induced; format: cell-based; conditions: for Emax: read-out: cAMP % Efficacy
T1 construct: expressed in transfected cells; host or cells: CHO-3D2 cells
T1 sequence (P23945 18-695): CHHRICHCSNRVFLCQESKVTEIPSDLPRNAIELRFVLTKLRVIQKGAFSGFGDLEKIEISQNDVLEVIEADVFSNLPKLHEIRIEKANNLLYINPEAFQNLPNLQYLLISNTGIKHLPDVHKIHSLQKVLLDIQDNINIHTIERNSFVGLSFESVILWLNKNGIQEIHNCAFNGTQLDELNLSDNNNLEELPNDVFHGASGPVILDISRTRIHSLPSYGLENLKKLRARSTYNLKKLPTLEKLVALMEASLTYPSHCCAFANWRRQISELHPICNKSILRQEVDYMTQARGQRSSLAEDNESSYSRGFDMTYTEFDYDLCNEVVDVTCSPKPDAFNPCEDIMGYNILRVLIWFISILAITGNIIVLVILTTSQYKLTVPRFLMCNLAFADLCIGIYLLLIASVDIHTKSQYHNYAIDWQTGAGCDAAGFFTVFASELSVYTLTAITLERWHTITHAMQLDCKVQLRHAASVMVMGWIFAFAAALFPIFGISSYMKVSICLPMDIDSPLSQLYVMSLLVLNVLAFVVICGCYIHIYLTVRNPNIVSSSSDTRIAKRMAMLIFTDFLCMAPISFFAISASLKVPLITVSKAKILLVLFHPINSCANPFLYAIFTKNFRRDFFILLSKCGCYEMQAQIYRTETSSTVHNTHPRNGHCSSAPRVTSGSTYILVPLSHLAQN
Description: COMPOUND VEHICLE: Stock compounds were solubilized in 100% DMSO (Sigma Chemical Co.) at a concentration of 30 mM. The compounds were subsequently diluted in sterile assay medium consisting of Opti-MEM® I (Life Technologies) with 0.1% (w/v) BSA (Sigma), prior to use in the bio-assay. The final concentration of DMSO in the assay is 0.1%.
Plated cells are then incubated at 37° C. in a humidified 5% CO2/95% air, atmosphere.
On the day of the assay, cells were washed three times with 100 μl/well of assay medium consisting of Opti-MEM® I (Life Technologies) with 0.1% (w/v) BSA (Sigma). Medium was removed and 100 μl of assay medium was added to each well. Plates were incubated for an additional 30 minutes at 37° C. […] Reactions were terminated by the addition of 50 μl of 0.2N hydrochloric acid to each well and cAMP-accumulation was measured by radioimmunoassay (RIA) using a commercially available kit (Amersham).
All test compounds were evaluated in a dose-response paradigm ranging from about 0.01 to about 30 μM. Controls and test compounds were evaluated in quadruplicate in a 96-well format.
Along with the test compounds, FSH was also run as a positive control in the agonist mode using concentrations ranging from about 0.1-1000 ng/ml.
Data were analyzed by one-way analysis of variance and significant differences between treatments and control determined by Least Significant Difference test.
Test compounds were compared to the effect of purified human FSH.

human FSH receptor = molecular target: T2, human FSH receptor (Homo sapiens, UniProt P23945); assay: FSH receptor-dependent CRE-luciferase reporter gene assay (CHO FSH-R 6CRE-Luc, 1D7 cells); format: cell-based; conditions: for IC50: dose-response format in presence of EC50 of purified human FSH
T2 construct: host or cells: CHO-K1 (CHO FSH-R 6CRE-Luc, 1D7 cells)
T2 sequence (P23945 18-695): T1 sequence (P23945 18-695)
Description: This procedure was used to identify and determine the relative potencies of human FSH receptor antagonists using a Chinese hamster ovarian cell line that stably produces the human FSH receptor and a luciferase reporter gene regulated by cAMP response elements.
The compounds were subsequently diluted in DMSO to working dilutions of 1 and 20 or 30 mM for 2-dose testing format and 1 μM-10 mM for dose-response format. The DMSO dilutions were diluted 500-fold in sterile growth medium [D-MEM/F-12 (GIBCO/BRL; Grand Island N.Y.) containing 15 mM HEPES, 2 mM 1-glutamine, pyridoxine hydrochloride, phenol red and 5% FetalClone II (HyClone Laboratories, Inc; Logan, Utah), 0.2% DMSO, 100 units penicillin G/ml, and 100 μg streptomycin sulfate/ml (GIBCO/BRL)]. The concentration of the vehicle in each of the compound dilutions was the same. POSITIVE CONTROLS: Purified human FSH (>98%) was purchased from Cortex Biochem, Inc. (San Leandro, Calif.) and a known FSH-R thiazolidinone antagonist was obtained from the Wyeth Research compound repository. Preparation of Cells
The CHO FSH-R 6CRE-Luc cells (1D7 cells) were obtained from Affymax (Palo Alto, Calif.). These Chinese hamster ovary cells (CHO-K1) were genetically engineered to stably express the recombinant human FSH receptor gene and a luciferase reporter gene under the regulation of 6 copies of a cAMP response element. The cells were plated one day prior to treatment into 96-well white opaque plates at a density of 50,000 cells/100 μl/well in growth medium. On the day of treatment, the growth medium was removed from the wells by aspiration and 50 µl of fresh growth medium was added to each well. The cells were incubated at 37° C. in a humidified incubator with 5% CO2/95% air.
The treated cells were incubated for 4 hours at 37° C. in a humidified incubator with 5% CO2/95% air. At the end of the incubation period, luciferase activity was measured by chemiluminescence using a commercially available kit (LucScreen, Tropix, Inc., Bedford, Mass.) according to the manufacturer's specifications, except that Buffer 1 and Buffer 2 were mixed together in equal proportion prior to the addition of 100 μl of the combined reagents to each well. Chemiluminescence was detected using a luminometer (EG & G Berthold Microlumat LB 96 P, Wallac, Gaithersburg, Md.) with chemiluminescence measured for 1 sec/well.
Background luminescence was measured for each well prior to the addition of the LucScreen reagent.
In the 96-well 2-dose format, each compound was tested in duplicate at each dose. […] One plate was used to test a maximum of 22 compounds.
The EC50 of purified human FSH alone was tested in triplicate with each test compound. The doses chosen to test each compound were extrapolated from the initial 2-dose screening process. Along with the test compounds, purified human FSH was also tested in a dose response (0.03, 0.1, 0.3, 1, 3, 10, and 30 ng/ml) for a positive control and quality control. One plate was used for 3 test compounds and the FSH positive control.
Luciferase activity is expressed as relative light units/sec/well. Luciferase activity in antagonist was compared to the appropriate negative and positive controls. For 2-dose testing, results are reported as luciferase activity and are expressed as % inhibition of the response obtained from the EC50 of FSH. For dose-response testing, results are reported as IC50 values. Data were analyzed statistically by one-way analysis of variance with appropriate weighting and transformation and relevant paired test as determined by Biometrics (Wyeth Research, Princeton, N.J.). IC50 values were calculated using the Stat/Excel program developed by Biometrics with appropriate weighting and transformation.

| SMILES | IC50 (hFSH-R) | Emax (hFSH-R) | melting point | IC50 (human FSH receptor) | inhibition at 30 µM (human FSH receptor; 2-dose format, test concentration 30 μM in parentheses, % inhibition of the response to EC50 of FSH) |
| --- | --- | --- | --- | --- | --- |
| COc1ccccc1-c1ccc(C(=O)N2Cc3ccc(C(=O)NCc4cccn4C)n3Cc3ccccc32)cc1 [Example 2, 10-[(2′-Methoxy-1,1′-biphenyl-4-yl)carbonyl]-N-[(1-methyl-1H-pyrrol-2-yl)methyl]-10,11-dihydro-5H-pyrrolo[2,1-c][1,4]benzodiazepine-3-carboxamide] | 1.2 µM | 79% | 148 to 150 °C | 42.6 µM | – |
| COc1ccccc1-c1ccc(C(=O)N2Cc3ccc(C(=O)NCc4cc(C)on4)n3Cc3ccccc32)cc1 [Example 5, 10-[(2′-Methoxy-1,1′-biphenyl-4-yl)carbonyl]-N-[(5-methylisoxazol-3-yl)methyl]-10,11-dihydro-5H-pyrrolo[2,1-c][1,4]benzodiazepine-3-carboxamide] | 0.6 µM | 96% | 111 to 113 °C | 10.2 µM | – |
| COc1ccccc1-c1ccc(C(=O)N2Cc3ccc(C(=O)NCc4cc(C)oc4C)n3Cc3ccccc32)cc1 [Example 6, N-[(2,5-Dimethyl-3-furyl)methyl]-10-[(2′-methoxy-1,1′-biphenyl-4-yl)carbonyl]-10,11-dihydro-5H-pyrrolo[2,1-c][1,4]benzodiazepine-3-carboxamide] | 0.3 µM | 81% | – | 3.3 µM | – |
| COc1ccccc1-c1ccc(C(=O)N2Cc3ccc(C(=O)NCC4CN(Cc5ccccc5)CCO4)n3Cc3ccccc32)cc1 (centres unmarked) [Example 7, N-[(4-Benzylmorpholin-2-yl)methyl]-10-[(2′-methoxy-1,1′-biphenyl-4-yl)carbonyl]-10,11-dihydro-5H-pyrrolo[2,1-c][1,4]benzodiazepine-3-carboxamide] | – | – | 180 to 182 °C | – | 26% |

More lines, now with the values ahead:

| IC50 (hFSH-R) | Emax (hFSH-R) | melting point | IC50 (human FSH receptor) | inhibition at 30 µM (human FSH receptor; 2-dose format, test concentration 30 μM in parentheses, % inhibition of the response to EC50 of FSH) | SMILES |
| --- | --- | --- | --- | --- | --- |
| – | – | 233 to 234 °C | > 30 µM | – | Cc1cc(CNC(=O)c2ccc3n2Cc2ccccc2N(C(=O)c2ccc(-c4c(C)cccc4C)c(C)c2)C3)no1 [Example 4, N-[(5-Methylisoxazol-3-yl)methyl]-10-[(2,2′,6′-trimethyl-1,1′-biphenyl-4-yl)carbonyl]-10,11-dihydro-5H-pyrrolo[2,1-c][1,4]benzodiazepine-3-carboxamide] |
| – | – | 222 to 224 °C | > 30 µM | – | Cc1cc(C(=O)N2Cc3ccc(C(=O)NCc4cccn4C)n3Cc3ccccc32)ccc1-c1c(C)cccc1C [Example 8, N-[(1-Methyl-1H-pyrrol-2-yl)methyl]-10-[(2,2′,6′-trimethyl-1,1′-biphenyl-4-yl)carbonyl]-10,11-dihydro-5H-pyrrolo[2,1-c][1,4]benzodiazepine-3-carboxamide] |
| – | – | 133 to 135 °C | – | – | COc1ccc(-c2nc(CNC(=O)c3ccc4n3Cc3ccccc3N(C(=O)c3ccc(-c5ccccc5C)c(C)c3)C4)no2)cc1 [Example 10, 10-[(2,2′-Dimethyl-1,1′-biphenyl-4-yl)carbonyl]-N-{[5-(4-methoxyphenyl)-1,2,4-oxadiazol-3-yl]methyl}-10,11-dihydro-5H-pyrrolo[2,1-c][1,4]benzodiazepine-3-carboxamide] |
| – | – | 198 to 201 °C | – | – | Cc1ccccc1-c1ccc(C(=O)N2Cc3ccc(C(=O)NCc4csc(-c5ccc(Cl)cc5)n4)n3Cc3ccccc32)cc1C [Example 11, N-{[2-(4-Chlorophenyl)-1,3-thiazol-4-yl]methyl}-10-[(2,2′-dimethyl-1,1′-biphenyl-4-yl)carbonyl]-10,11-dihydro-5H-pyrrolo[2,1-c][1,4]benzodiazepine-3-carboxamide] |
| – | – | – | > 30 µM | – | Cc1ccccc1-c1ccc(C(=O)N2Cc3ccc(C(=O)NCC4CCCNC4)n3Cc3ccccc32)cc1C (centres unmarked) [Example 12, 10-[(2,2′-Dimethyl-1,1′-biphenyl-4-yl)carbonyl]-N-(piperidin-3-ylmethyl)-10,11-dihydro-5H-pyrrolo[2,1-c][1,4]benzodiazepine-3-carboxamide] |
